{"source": "patent US10533032B2", "about": "“Crystalline form of benzylbenzene SGLT2 inhibitor” (THERACOS SUB, LLC, priority 2010, dated 2020)", "key": {"[1]": {"experiment": "Hygroscopicity test of crystalline compound 8 powder in desiccators over saturated salt solutions (weight increase, appearance)", "format": "physicochemical", "conditions": "for Weight Increase, Average: average of 3 samples; for Weight Increase: individual samples 1-3, listed as crystal compound 8"}, "[2]": {"experiment": "Hygroscopicity test of crystalline compound 8 powder in desiccators over saturated salt solutions (weight increase, appearance)", "format": "physicochemical", "conditions": "for Weight Increase: individual samples 1-3, listed as crystal compound 8", "protocol": "The tendency toward hygroscopicity of crystalline compound 8 in powder form was tested at 75% and 92.5% relative humidity at 25° C. for up to 10 days. Reagents included: (1) water: in house, MilliQ, 18.2MΩ; (2) NaCl: AR grade; (3) KNO3: AR grade; (4) saturated NaC solution with extra NaCl solid for 25 OC/75% RH control; and (5) saturated KNO3 solution with extra KNO3 solid for 25 OC/92.5% RH control. Equipment used included (1) desiccators, 240 mm ID; and (2) weighing bottles with lids: 50 mm ID×30 mm height. The saturated salt solutions and solids were transferred into individual desiccators, and equilibrated at 25° C. at least overnight to reach the desired relative humidity readings. Four weighing bottles were placed into each desiccator, and equilibrated overnight. The empty weighing bottles were weighed and the tare weights recorded (W1). 0.5 g of crystalline compound 8 was added into three weighing bottles in each desiccator to form a thin layer with thickness of 1-2 mm. The sample weight in each bottle (W2) was recorded. One empty weighing bottle was used for blank calibration. The bottles were left in each desiccator with lids open. The lids were closed and each bottle accurately weighed on days 1, 5 and 10 (W3). The bottles were returned to each desiccator with lids open immediately after weighing. The following formula was used to calculate the weight increase: [formula] WB=the weight increase of empty weighing bottle."}, "[3]": {"format": "physicochemical", "text": "The crystalline compound of the present invention is also characterized by the unit cell data substantially in accordance with FIG. 7. Thermal gravimetric analysis (TGA) can also be used to characterize the crystalline compound of the present invention."}}, "note": "Several values for one entry are separate records, joined by “and”; a condition that tells them apart may be missing. Identical values can stand only once."}
{"smiles": "OC[C@H]1O[C@@H](c2ccc(Cl)c(Cc3ccc(OCCOC4CC4)cc3)c2)[C@H](O)[C@@H](O)[C@@H]1O", "note": "[crystalline compound 8, (2S,3R,4R,5S,6R)-2-(4-chloro-3-(4-(2-cyclopropoxyethoxy)benzyl)phenyl)-6-(hydroxymethyl)tetrahydro-2H-pyran-3,4,5-triol]", "values": [{"measurement": "Weight Increase, Average", "setting": "[1]; 25° C./75% RH, 5 days", "value": 0.1541, "unit": "%"}, {"measurement": "Weight Increase, Average", "setting": "[1]; 25° C./75% RH, 10 days", "value": 0.2593, "unit": "%"}, {"measurement": "Appearance", "setting": "[1]; 25° C./75% RH, after 1 day", "value": "White powder"}, {"measurement": "Weight Increase, Average", "setting": "[1]; 25° C./92.5% RH, 1 day", "value": 0.119, "unit": "%"}, {"measurement": "Weight Increase", "setting": "[1]; 25° C./92.5% RH, 1 day", "value": "0.05362% and 0.1036% and 0.1998%"}, {"measurement": "Weight Increase, Average", "setting": "[1]; 25° C./92.5% RH, 5 days", "value": 0.1627, "unit": "%"}, {"measurement": "Weight Increase", "setting": "[1]; 25° C./92.5% RH, 5 days", "value": "0.0417% and 0.2071% and 0.2394%"}, {"measurement": "Weight Increase, Average", "setting": "[1]; 25° C./92.5% RH, 10 days", "value": 0.2295, "unit": "%"}, {"measurement": "Weight Increase", "setting": "[1]; 25° C./92.5% RH, 10 days", "value": "0.2601% and 0.1633% and 0.2651%"}, {"measurement": "Appearance", "setting": "[1]; 25° C./92.5% RH, after 1 day", "value": "White powder"}, {"measurement": "Appearance", "setting": "[1]; 25° C./92.5% RH, after 5 days", "value": "White powder"}, {"measurement": "Appearance", "setting": "[1]; 25° C./92.5% RH, after 10 days", "value": "White powder"}, {"measurement": "Weight Increase, Average", "setting": "[2]; 25° C./75% RH, 1 day, average of 3 samples", "value": 0.2447, "unit": "%"}, {"measurement": "Weight Increase", "setting": "[2]; 25° C./75% RH, 1 day", "value": "0.3291% and 0.235% and 0.1698%"}, {"measurement": "Weight Increase", "setting": "[2]; 25° C./75% RH, 5 days", "value": "0.1051% and 0.1995% and 0.1578%"}, {"measurement": "Weight Increase", "setting": "[2]; 25° C./75% RH, 10 days", "value": "0.3509% and 0.2311% and 0.1957%"}, {"measurement": "Appearance", "setting": "[2]; 25° C./75% RH, after 5 days", "value": "White powder"}, {"measurement": "Appearance", "setting": "[2]; 25° C./75% RH, after 10 days", "value": "White powder"}, {"measurement": "hygroscopicity", "setting": "[2]; powder form, at the study conditions (75% and 92.5% RH, 25° C., up to 10 days)", "value": "low hygroscopicity"}, {"measurement": "weight increases", "setting": "[2]; powder samples at 75% and 92.5% relative humidity at 25° C. for 10 days", "value": "below 0.26%"}, {"measurement": "thermal stability (TGA)", "setting": "[3]", "value": "above 200 °C"}]}
